This note sets out measurements from ChEMBL document CHEMBL5465560, “Selectivity Literature for EUbOPEN Chemogenomic Library” (2024).

Assay [1] deals with Dual specificity protein kinase CLK4 (Homo sapiens, UniProt Q9HAZ1). Description: Selectivity interaction (LanthaScreen Eu Kinase Binding Assay) EUB0001632a CLK4. Particulars: at 10 µM. In general terms: In TR-FRET formats the signal depends on donor and acceptor labels being close together.
Assay [2] deals with Phosphatidylinositol 4,5-bisphosphate 3-kinase catalytic subunit alpha isoform (Homo sapiens) (UniProt P42336). Put plainly: Selectivity interaction (Adapta Assay) EUB0001632a PIK3CA. Particulars: at 10 µM.
Chain of Phosphatidylinositol 4,5-bisphosphate 3-kinase catalytic subunit alpha isoform (Homo sapiens) (P42336 whole entry, canonical isoform): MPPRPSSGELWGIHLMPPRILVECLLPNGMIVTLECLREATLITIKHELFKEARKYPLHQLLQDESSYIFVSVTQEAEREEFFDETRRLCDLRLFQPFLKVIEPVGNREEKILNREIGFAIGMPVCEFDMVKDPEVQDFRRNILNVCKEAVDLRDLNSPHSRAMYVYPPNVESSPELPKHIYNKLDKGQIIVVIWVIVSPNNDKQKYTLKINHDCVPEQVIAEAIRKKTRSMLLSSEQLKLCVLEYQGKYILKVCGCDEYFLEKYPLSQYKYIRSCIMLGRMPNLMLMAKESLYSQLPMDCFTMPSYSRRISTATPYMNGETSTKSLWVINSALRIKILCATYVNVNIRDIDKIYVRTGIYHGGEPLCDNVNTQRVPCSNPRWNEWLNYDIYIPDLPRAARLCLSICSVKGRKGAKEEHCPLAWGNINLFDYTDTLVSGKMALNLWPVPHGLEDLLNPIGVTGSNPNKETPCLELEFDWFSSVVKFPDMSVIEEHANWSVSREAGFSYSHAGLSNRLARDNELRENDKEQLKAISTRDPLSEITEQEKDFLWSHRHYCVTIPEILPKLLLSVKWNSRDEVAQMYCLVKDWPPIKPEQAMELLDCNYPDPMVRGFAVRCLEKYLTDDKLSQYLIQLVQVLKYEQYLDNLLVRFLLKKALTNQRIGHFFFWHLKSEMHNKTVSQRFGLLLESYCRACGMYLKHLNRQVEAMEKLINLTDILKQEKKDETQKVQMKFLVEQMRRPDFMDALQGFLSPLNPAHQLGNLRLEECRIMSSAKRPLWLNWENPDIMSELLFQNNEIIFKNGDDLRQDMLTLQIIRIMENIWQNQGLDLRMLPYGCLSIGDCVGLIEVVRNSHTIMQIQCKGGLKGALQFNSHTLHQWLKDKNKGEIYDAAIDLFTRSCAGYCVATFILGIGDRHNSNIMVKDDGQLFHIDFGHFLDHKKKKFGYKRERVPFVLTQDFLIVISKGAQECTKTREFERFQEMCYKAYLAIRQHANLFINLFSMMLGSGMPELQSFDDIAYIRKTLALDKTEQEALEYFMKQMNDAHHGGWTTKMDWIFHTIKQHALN
Assay [3] concerns the target T1, Sphingosine kinase 2 (Homo sapiens) (UniProt Q9NRA0).
T1 sequence (whole entry): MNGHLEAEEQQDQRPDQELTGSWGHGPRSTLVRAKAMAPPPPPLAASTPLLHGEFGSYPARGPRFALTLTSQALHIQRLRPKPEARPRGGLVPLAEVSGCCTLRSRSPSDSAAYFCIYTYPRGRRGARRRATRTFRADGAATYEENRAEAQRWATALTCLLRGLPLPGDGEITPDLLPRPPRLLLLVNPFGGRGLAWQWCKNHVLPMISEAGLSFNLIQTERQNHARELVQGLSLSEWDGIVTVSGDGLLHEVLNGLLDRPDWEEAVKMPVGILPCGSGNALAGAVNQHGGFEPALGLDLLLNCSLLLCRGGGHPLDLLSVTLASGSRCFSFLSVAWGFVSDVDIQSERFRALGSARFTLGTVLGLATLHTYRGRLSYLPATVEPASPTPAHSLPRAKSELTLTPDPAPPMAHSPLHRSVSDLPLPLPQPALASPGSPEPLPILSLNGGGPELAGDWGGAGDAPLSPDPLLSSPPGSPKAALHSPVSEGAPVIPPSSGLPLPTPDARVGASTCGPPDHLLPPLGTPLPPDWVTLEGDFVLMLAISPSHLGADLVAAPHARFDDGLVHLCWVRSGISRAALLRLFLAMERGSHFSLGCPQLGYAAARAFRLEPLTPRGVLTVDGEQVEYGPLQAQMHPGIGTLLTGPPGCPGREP
Put plainly: Selectivity interaction (Adapta Assay) EUB0001632a SPHK2. The following applies: at 10 µM.

Assay [4] concerns the target T2, Receptor-interacting serine/threonine-protein kinase 1 (Homo sapiens) (UniProt Q13546).
T2 sequence (whole entry): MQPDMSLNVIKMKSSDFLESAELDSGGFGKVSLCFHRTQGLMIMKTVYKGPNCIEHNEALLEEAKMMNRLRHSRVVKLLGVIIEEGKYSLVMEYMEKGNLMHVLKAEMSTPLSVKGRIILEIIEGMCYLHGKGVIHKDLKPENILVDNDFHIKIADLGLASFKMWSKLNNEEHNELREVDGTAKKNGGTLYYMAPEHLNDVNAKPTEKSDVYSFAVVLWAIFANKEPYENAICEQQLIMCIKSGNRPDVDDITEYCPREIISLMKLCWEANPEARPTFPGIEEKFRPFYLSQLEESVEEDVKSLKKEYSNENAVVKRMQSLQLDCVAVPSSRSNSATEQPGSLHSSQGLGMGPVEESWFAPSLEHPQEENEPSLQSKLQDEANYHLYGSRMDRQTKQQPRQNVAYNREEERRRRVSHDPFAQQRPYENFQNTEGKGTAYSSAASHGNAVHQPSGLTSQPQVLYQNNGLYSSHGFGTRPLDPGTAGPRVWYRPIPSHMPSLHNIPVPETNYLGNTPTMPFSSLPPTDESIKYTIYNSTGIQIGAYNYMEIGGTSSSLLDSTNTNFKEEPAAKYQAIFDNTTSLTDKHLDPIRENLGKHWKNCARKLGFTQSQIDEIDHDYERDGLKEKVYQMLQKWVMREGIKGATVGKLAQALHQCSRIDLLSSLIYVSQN
Put plainly: Selectivity interaction (KinomeScan (DiscoverX)) EUB0000595a RIPK1. Particulars: at 10 µM.

The target in assay [5] is Tyrosine-protein kinase SYK (Homo sapiens, UniProt P43405). Put plainly: Selectivity interaction (KinomeScan (DiscoverX)) EUB0000045b SYK.
Assay [6] concerns the target T3, Serine/threonine-protein kinase 36 (Homo sapiens) (UniProt Q9NRP7).
T3 sequence (whole entry): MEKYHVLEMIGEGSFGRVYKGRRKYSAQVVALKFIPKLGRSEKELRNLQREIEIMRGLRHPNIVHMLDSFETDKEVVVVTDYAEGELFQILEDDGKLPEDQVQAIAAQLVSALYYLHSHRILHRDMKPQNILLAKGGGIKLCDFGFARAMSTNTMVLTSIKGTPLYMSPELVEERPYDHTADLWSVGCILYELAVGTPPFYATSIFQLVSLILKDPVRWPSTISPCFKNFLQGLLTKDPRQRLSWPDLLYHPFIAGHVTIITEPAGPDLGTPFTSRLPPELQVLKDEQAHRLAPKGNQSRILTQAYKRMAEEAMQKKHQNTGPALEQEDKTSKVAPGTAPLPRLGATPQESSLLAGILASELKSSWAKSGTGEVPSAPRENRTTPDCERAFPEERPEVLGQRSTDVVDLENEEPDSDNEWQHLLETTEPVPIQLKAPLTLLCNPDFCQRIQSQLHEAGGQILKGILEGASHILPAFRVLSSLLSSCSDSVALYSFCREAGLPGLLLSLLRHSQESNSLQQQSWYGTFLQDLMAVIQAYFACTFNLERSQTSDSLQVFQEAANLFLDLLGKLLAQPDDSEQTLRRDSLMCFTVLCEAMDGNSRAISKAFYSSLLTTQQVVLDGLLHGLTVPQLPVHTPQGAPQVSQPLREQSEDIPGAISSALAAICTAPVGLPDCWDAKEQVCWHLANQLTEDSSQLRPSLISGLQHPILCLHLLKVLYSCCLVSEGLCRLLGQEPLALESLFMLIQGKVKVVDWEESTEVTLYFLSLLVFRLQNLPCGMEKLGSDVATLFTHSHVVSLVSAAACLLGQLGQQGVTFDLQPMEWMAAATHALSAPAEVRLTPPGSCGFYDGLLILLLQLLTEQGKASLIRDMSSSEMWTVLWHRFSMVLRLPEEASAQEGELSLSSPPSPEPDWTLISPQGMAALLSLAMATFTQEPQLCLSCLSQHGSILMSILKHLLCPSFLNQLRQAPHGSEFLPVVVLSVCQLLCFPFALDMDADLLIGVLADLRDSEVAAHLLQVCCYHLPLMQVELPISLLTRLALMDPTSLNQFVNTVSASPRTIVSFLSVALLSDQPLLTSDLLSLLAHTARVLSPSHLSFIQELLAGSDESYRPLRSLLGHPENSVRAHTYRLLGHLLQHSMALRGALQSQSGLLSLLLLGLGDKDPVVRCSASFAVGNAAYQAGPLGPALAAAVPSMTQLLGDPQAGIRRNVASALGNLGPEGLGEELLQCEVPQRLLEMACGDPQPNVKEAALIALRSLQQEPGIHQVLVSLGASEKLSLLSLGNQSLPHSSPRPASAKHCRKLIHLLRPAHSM
Description: Selectivity interaction (KinomeScan (DiscoverX)) EUB0001049a STK36. The following applies: at 1 µM.

Chain of Dual specificity protein kinase CLK4 (Q9HAZ1 whole entry, looked up, canonical isoform): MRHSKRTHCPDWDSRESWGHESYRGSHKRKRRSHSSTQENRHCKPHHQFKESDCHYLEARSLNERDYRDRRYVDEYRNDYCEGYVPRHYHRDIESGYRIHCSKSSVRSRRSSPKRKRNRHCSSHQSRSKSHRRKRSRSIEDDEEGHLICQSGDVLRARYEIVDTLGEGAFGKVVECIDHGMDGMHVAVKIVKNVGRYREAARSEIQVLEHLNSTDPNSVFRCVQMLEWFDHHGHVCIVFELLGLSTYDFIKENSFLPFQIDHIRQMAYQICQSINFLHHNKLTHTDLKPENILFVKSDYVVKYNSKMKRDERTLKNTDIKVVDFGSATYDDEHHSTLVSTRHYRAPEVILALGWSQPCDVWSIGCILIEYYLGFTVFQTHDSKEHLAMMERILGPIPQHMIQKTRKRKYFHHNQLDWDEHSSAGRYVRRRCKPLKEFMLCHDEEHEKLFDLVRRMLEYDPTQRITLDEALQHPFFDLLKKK

For `Cn1cc(-n2cnc3c(NCc4nc5cc(Cl)c(Cl)cc5[nH]4)nc(N4CCOCC4)nc32)cn1`, the % of inhibition in assay [1] came out at 12.3%; in assay [2], 37.1%; in assay [3], 67.7%. Take `COCC(=O)NC/C=C/c1ccc2ncnc(Nc3ccc(Oc4ccc(C)nc4)c(C)c3)c2c1` [CP-724714]: the % of control in assay [4] stood at 100%. For `C=CC(=O)Nc1cc(-n2c(=O)ccc3cnc4ccc(-c5ccc(NS(C)(=O)=O)cc5)cc4c32)ccc1C`, the values for the % of control in assay [5] (at 1 µM) and in assay [5] (at 10 µM) were 100% and 96%, respectively. On to `COc1cc(Nc2nc(C)cc(-c3cnn4nc(OC)ccc34)n2)cc(C(F)(F)F)c1`, for which, in assay [6], the % of control came to 99%.
